Reference: ChEMBL document CHEMBL1201862, “PubChem BioAssay data set” (2004)
The source made the active and inactive calls.

Key:
Coagulation factor XII = biological target: T1, Coagulation factor XII (Homo sapiens, UniProt P00748); assay type: functional;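 further: activated factor XIIa alpha cleaving a fluorogenic AMC peptide substrate; inhibitor potency from loss of enzyme activity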
T1 sequence (P00748 whole entry): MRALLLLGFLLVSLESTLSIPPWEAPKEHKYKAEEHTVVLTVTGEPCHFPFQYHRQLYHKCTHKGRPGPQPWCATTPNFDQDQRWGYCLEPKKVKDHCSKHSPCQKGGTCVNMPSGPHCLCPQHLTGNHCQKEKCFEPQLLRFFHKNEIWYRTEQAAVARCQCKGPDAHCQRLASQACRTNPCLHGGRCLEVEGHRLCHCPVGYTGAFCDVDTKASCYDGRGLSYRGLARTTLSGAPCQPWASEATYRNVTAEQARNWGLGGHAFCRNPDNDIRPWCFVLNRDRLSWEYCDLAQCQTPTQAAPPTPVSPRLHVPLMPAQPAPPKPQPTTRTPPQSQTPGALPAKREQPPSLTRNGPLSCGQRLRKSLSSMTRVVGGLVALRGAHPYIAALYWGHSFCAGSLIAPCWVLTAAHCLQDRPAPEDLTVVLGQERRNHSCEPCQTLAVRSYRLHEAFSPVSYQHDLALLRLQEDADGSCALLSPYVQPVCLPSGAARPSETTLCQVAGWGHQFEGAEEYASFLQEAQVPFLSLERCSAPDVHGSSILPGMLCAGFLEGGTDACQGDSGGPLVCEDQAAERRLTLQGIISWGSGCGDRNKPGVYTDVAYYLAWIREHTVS

[1] = biological target: T2, Microphthalmia-associated transcription factor (Homo sapiens, UniProt O75030); test: reducers of TRPM1 reporter luminescence, concentration series – cell-based, SK-MEL-5, cherry-picked, set 3, MITF inhibitor project, dose response (AID 493073); assay type: functional;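 further: SK-MEL-5 melanoma cells with luciferase driven by the MITF target TRPM1 promoter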
T2 sequence (O75030 whole entry): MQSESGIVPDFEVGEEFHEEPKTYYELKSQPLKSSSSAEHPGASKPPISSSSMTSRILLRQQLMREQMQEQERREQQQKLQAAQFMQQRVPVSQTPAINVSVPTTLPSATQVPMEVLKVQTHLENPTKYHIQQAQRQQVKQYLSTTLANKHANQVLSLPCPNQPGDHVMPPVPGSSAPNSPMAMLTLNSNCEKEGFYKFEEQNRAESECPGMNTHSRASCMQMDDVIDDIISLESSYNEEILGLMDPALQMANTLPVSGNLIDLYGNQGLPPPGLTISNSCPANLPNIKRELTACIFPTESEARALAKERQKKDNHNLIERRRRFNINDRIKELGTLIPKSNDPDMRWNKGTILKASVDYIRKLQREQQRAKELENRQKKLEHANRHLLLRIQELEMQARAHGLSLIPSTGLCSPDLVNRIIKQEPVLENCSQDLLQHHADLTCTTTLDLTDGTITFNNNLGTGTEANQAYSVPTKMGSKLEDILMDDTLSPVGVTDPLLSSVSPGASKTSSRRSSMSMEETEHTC

[2] = blockade of melanocortin 4 receptor signaling – cell-based, plate reader, cherry pick, counter-screen for LGR2 antagonist project, dose response (AID 743444); assay type: functional;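 further: transfected HEK 293 cells stimulated with alpha-MSH peptide; potency of inhibitors of the alpha-MSH evoked signal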
[3] = blockers of bursicon-stimulated LGR2 cAMP reporter – cell-based, HEK293, CRE-luciferase reporter, cherry pick, set 2, dose response (AID 743343); assay type: functional;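 further: transfected cells were stimulated with diluted bursicon conditioned medium after compound addition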
[4] = biological target: T3, Endoribonuclease toxin MazF (Escherichia coli K-12, UniProt P0AE70); test: activation of MazEF endoribonuclease cleavage – biochemical, fluorescence, single-stranded RNA substrate, uHTS hits, dose response (AID 588481); assay type: functional
T3 sequence (P0AE70 whole entry): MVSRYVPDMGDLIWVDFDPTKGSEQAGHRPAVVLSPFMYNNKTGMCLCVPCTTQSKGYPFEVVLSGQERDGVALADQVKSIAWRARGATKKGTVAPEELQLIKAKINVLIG

[5] = biological target: T3, Endoribonuclease toxin MazF; test: substrate-only fluorescence increase artefacts – biochemical, single-stranded RNase substrate, counter-screen for MazEF activator project, dose response (AID 588502); assay type: functional
[6] = alpha-synuclein stem-loop luciferase translation blockers – H4 neuroglioma cells, luminescence, confirmation (AID 1988); assay type: functional, cell-based
[7] = Luminescence Cell-Based Dose Response HTS to Identify Inhibitors of 5'UTR Stem-Loop Driven Prion Protein mRNA Translation in H4 Neuroglioblastoma Cells. [Related pubchem assays: 1827 (Project Summary), 1813 (Primary HTS)]; assay type: functional
[8] = luciferase reporter signal suppression in cells – H4 neuroglioma cells, luminescence, dose response (AID 1990); assay type: functional, cell-based
[9] = biological target: T4, Sentrin-specific protease 6 (Homo sapiens, UniProt Q9GZR1); assay type: functional;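 further: Luminescence-based dose-response confirmatory assay of SENP6 inhibition, following up an ultra-high-throughput screen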
T4 sequence (Q9GZR1 whole entry): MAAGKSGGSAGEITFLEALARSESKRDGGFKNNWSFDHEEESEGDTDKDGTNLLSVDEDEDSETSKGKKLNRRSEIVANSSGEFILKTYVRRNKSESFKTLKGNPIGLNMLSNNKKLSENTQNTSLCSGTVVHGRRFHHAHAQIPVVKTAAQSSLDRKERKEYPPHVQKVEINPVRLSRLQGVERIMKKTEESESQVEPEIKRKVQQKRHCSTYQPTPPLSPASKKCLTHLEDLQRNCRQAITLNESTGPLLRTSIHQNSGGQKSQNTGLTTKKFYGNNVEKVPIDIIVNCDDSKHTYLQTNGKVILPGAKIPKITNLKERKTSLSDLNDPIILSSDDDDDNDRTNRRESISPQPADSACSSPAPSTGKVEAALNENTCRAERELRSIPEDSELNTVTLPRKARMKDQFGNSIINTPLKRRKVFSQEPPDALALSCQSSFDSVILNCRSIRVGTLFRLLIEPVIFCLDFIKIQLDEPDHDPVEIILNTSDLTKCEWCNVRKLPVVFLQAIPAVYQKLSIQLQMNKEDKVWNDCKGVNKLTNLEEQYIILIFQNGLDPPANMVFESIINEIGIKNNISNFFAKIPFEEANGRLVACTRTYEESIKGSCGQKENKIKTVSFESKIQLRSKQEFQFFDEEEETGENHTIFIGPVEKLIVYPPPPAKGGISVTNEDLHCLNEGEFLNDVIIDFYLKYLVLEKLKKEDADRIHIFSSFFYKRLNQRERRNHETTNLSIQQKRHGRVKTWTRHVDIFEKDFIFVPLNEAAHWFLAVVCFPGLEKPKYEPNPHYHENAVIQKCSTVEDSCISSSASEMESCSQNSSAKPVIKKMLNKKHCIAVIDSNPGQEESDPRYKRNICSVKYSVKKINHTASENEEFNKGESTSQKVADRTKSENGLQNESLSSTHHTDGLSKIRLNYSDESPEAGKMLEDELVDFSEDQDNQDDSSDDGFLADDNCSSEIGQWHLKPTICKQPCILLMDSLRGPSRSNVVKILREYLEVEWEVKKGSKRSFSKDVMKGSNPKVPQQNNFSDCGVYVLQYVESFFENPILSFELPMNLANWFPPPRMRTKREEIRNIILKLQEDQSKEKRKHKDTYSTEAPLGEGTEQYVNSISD

[10] = biological target: T5, Sentrin-specific protease 7 (Homo sapiens, UniProt Q9BQF6); assay type: functional;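 further: Luminescence-based dose-response confirmation of ultra-high-throughput screening hits, measuring inhibition of SENP7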
T5 sequence (Q9BQF6 whole entry): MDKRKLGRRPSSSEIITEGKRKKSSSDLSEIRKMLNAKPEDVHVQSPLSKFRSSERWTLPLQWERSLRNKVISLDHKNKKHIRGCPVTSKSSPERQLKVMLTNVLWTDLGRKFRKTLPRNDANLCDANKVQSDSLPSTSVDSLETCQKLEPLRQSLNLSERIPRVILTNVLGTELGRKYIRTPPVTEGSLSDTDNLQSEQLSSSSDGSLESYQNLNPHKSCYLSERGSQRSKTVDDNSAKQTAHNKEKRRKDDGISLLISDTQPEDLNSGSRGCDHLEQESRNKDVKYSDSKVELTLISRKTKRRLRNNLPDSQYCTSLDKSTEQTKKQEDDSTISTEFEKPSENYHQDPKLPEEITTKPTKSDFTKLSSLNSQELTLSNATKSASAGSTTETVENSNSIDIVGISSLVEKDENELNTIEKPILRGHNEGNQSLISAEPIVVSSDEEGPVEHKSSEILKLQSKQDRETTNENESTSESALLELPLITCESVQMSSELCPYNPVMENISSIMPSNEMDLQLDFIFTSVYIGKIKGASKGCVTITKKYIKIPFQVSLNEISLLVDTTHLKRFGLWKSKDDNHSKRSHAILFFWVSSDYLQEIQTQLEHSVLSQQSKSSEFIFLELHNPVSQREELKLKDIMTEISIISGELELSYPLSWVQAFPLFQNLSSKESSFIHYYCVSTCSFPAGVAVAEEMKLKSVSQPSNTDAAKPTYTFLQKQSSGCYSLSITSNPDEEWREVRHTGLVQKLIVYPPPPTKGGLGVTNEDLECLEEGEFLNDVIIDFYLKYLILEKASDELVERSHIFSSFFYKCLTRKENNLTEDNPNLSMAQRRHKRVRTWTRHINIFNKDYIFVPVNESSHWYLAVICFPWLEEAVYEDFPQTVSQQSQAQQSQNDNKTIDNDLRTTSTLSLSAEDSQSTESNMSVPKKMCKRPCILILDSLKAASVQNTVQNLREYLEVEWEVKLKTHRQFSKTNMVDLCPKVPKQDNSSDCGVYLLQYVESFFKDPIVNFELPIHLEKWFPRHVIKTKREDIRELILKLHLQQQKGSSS

[11] = biological target: T6, Sentrin-specific protease 8 (Homo sapiens, UniProt Q96LD8); assay type: functional;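 further: luminescence read-out of SENP8 inhibition, dose-response confirmation following an ultra-high-throughput screen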
T6 sequence (Q96LD8 whole entry): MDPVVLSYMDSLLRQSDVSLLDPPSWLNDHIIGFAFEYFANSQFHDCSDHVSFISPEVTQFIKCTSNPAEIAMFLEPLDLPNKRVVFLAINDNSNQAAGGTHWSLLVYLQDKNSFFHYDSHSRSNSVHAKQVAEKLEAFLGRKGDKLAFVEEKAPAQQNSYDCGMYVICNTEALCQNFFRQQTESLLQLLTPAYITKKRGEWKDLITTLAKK

Caspase-3 = biological target: T7, Caspase-3 (Homo sapiens, UniProt P42574); assay type: functional;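 further: Dose-response selectivity test against caspase-3 for candidate inhibitors of sentrin-specific proteases (SENPs)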
T7 sequence (P42574 whole entry): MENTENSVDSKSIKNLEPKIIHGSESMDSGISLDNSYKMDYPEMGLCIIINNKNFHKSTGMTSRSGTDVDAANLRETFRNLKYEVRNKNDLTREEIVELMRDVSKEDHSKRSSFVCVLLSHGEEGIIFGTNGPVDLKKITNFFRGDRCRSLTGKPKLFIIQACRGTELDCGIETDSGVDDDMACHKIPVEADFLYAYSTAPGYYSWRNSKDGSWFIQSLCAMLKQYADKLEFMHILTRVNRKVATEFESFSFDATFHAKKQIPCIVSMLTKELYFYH

[12] = antiviral protection against BTV-induced cell death – arbovirus, BSR cells, confirmation (AID 1250); assay type: functional;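 further: protection from viral cytopathic effect measured as cell viability by ATP luminescence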
[13] = HEK-293T viability loss after treatment – luminescence, T-cell screen hits, cytotoxicity control for TCR NF-kB inhibitor project, dose response (AID 489026); assay type: functional, cell-based;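 further: cells exposed to compound about 14 hours before the viability readout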

In the case of `COc1ccc(C(=O)CSc2nc3ccc[nH]c-3n2)cc1OC`, the IC50 (Coagulation factor XII) is reported as > 50 µM (inactive).

With `O=C(NC1CCCc2ccccc21)C1CCN(S(=O)(=O)c2ccccc2F)CC1` (centres undefined) the IC50 (Coagulation factor XII) was > 50 µM (inactive).

With `CCOc1ccc(C(=O)Nc2cccc(C(=O)O)c2C)cc1Cl` the AC50 [1] was 8.56 µM (active), the AC50 [2] was 10.1 µM (active) and the AC50 [3] was 8.96 µM (active).

For `COc1cc2[nH]c(=O)n(Cc3ccc(C(=O)NC4CCCC4)cc3)c(=O)c2cc1OC`, the EC50 [4] was > 99 µM (inactive) and the EC50 [5] was > 99 µM (inactive).

In the case of `Cc1cc(C(=O)CN2C(=O)c3ccccc3S2(=O)=O)c(C)n1-c1ccccc1`, the AC50 [1] is reported as 3.45 µM (active), the EC50 [6] is reported as 5.88 µM (active) and the EC50 [7] is reported as 9.5 µM (active). For the same compound, the EC50 [8] was 7.71 µM (active).

With `Cc1cc(NC(=O)COC(=O)C2CCN(S(=O)(=O)c3c(Cl)cccc3Cl)CC2)no1` the IC50 (Coagulation factor XII) was > 50 µM (inactive).

With `O=C(Nc1nc2c(s1)CCCC2)c1ccc(Br)s1` the IC50 [9] was 5.95 µM (active), the IC50 [10] was 4.82 µM (active) and the IC50 [11] was 25.4 µM (active). The IC50 (Caspase-3) was 24.9 µM (active) and the IC50 [12] was 25.7 µM (active).

For `CCOc1ccc(-c2[nH]ncc2-c2ccc(OC)c(OC)c2)c(O)c1`, the IC50 [13] was 75.8 µM (inactive).

In the case of `CCOc1cc(NC(=O)CCl)c(OCC)cc1NC(=O)CCl`, the AC50 [1] is reported as 5.51 µM (active).
